{
  "source": "patent US20230141603A1",
  "about": "“BENZODIAZEPINE DERIVATIVES AS GABA A GAMMA1 PAM” (Hoffmann-La Roche Inc., priority 2021, published 2023)",
  "data": [
    {"target": "T1, h-GABAA α5β2γ1 (Homo sapiens, UniProt P31644+Q8N1C3)", "T1 construct": "expressed in transfected cells; host or cells: HEK293F cells (ThermoFisher R79007), membranes", "T1 sequence (P31644 32-462)": "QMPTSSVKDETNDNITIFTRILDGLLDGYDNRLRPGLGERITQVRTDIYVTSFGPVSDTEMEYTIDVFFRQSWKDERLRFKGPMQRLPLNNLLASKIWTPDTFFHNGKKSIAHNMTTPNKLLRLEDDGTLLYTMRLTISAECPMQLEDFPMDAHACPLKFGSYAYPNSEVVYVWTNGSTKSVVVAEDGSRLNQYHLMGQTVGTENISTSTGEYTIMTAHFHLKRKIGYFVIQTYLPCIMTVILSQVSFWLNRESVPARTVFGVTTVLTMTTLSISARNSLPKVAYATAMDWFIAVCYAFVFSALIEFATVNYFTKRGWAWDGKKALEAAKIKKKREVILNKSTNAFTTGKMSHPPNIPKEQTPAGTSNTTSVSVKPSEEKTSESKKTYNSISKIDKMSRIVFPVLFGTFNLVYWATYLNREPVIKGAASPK", "T1 sequence (P47870 25-512 partner limits assumed)": "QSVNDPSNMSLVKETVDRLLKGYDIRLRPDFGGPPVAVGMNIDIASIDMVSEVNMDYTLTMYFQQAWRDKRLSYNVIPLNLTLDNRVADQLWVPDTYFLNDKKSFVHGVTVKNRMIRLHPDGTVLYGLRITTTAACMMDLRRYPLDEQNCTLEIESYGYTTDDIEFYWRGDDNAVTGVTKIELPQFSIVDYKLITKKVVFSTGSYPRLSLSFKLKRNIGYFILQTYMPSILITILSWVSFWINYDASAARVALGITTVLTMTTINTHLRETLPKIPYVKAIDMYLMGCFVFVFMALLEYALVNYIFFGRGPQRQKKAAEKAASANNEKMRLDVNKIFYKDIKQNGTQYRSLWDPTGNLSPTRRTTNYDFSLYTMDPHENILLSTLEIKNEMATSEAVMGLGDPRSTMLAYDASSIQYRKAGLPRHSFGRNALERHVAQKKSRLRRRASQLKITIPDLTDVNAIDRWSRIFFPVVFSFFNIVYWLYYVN", "T1 sequence (Q8N1C3 36-465)": "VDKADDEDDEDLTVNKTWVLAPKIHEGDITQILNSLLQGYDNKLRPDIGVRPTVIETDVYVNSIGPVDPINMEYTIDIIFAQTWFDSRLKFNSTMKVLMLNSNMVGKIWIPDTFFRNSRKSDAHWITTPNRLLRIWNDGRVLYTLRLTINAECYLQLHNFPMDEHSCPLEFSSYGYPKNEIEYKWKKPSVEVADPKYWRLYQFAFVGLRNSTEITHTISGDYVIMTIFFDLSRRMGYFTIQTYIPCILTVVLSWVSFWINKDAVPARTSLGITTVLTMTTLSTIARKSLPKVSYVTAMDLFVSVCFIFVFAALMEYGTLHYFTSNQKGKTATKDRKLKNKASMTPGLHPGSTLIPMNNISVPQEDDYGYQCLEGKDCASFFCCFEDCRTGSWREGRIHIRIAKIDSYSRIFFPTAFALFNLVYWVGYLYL", "assay": "Radioligand binding assay, [3H]RO7239181 competition, HEK293F membranes", "method": "The affinity of compounds at GABAA γ1 subunit-containing receptors was measured by competition for [^3H]RO7239181 (67.3 Ci/mmol; Roche) binding to membranes from HEK293F cells (ThermoFisher R79007) expressing human (transiently transfected) receptors of composition […], α2β2γ1, α1β2γ1. For better protein expression of the α2 subunit-containing receptors, the 28 amino acid long signal peptide (Met1 to Ala28) of the human GABAA α2 subunit was substituted by the 31 amino acid long signal peptide (Met1 to Ser31) of human GABAA α5 subunit.\nHarvested pellets from HEK293F cells expressing the different GABAA receptor subtypes were resuspended in Mannitol Buffer pH 7.2-7.4 (Mannitol 0.29M, Triethylamine 10 mM, Acetic acid 10 mM, EDTA 1 mM plus protease inhibitors (20 tablets Complete, Roche Diagnostics Cat. No. 05 056 489 001 per liter)), washed two times and then resuspended at 1:10 to 1:15 dilution in the same buffer. Cell disruption was performed by stirring the suspension in a Parr vessel #4637 at 435 psi for 15 minutes, and then the suspensions were centrifuged at 1000×g for 15 minutes at 4° C. (Beckman Avanti J-HC; rotor JS-4.2). The supernatant (S1) was transferred in a 21 Schott flask and the pellet (P1) was resuspended with Mannitol Buffer up to 175 ml. The resuspended pellet was transferred into a 250 ml Corning centrifugal beaker and centrifuged at 1500×g for 10 minutes at 4° C. (Beckman Avanti J-HC; rotor JS-4.2). The supernatant (S1) was then transferred in the 21 Schott flask and the pellet was discarded. The supernatants (S1) were centrifuged in 500 ml Beckman polypropylene centrifugal beaker at 15′000×g for 30 minutes at 4° C. (Beckman Avanti J-20 XP; rotor JLA-10.500). The pellet (P2) was resuspended with Mannitol Buffer 1:1 and frozen at −80° C. The supernatant (S2) was centrifuged in 100 ml Beckman polypropylene centrifugal tubes at 48000×g for 50 minutes at 4° C. (Beckman Avanti J-20 XP; rotor JA-18). The supernatant (S3) was discarded and the pellet (P3) was resuspended with 1:1 Mannitol Buffer. The P2 and P3 protein concentration was determined with the BIORAD Standard assay method with bovine serum albumin as standard and measured on the NANO-Drop 1000. The membrane suspension was aliquots (500 μl per tube) and stored at −80° C. until required. Membrane homogenates were resuspended and polytronised (Polytron PT1200E Kinematica AG) in Potassium Phosphate 10 mM, KCl 100 mM binding buffer at pH 7.4 to a final assay concentration determined with a previous experiment.\nRadioligand binding assays were carried out in a volume of 200 μL (96-well plates) which contained 100 μL of cell membranes, [^3H]RO7239181 at a concentration of 1.5 nM (α5β2γ1) or 20-30 nM (α1β2γ1, α2β2γ1) and the test compound in the range of [0.3-10000]×10^−9 M. Nonspecific binding was defined by 10×10^−6 (α5β2γ1) and 30×10^−6 M RO7235136 and typically represented less than 5% (α5β2γ1) and less than 20% (α1β2γ1, α2β2γ1) of the total binding. Assays were incubated to equilibrium for 1 hour at 4° C. and then, membranes were filtered onto unifilter (96-well white microplate with bonded GF/C filters preincubated 20-50 minutes in 0.3% Polyethylenimine) with a Filtermate 196 harvester (Packard BioScience) and washed 4 times with cold Potassium Phosphate 10 mM pH 7.4, KCl 100 mM binding buffer. After drying, filter-retained radioactivity was detected by liquid scintillation counting. Ki values were calculated using Excel-Fit (Microsoft) and are the means of two determinations.", "units": {"Ki": "nM"}, "values": [
      {"molecule": "Fc1cccc(F)c1C1=NCc2nnc(-c3cccnn3)n2-c2ccc(I)c(Cl)c21", "note": "[Example 39, 7-chloro-6-(2,6-difluorophenyl)-8-iodo-1-pyridazin-3-yl-4H-[1,2,4]triazolo[4,3-a][1,4]benzodiazepine]", "Ki": 0.8},
      {"molecule": "Fc1cccc(F)c1C1=NCc2nncn2-c2ccc(C(F)F)c(Cl)c21", "note": "[Example 23, 7-chloro-8-(difluoromethyl)-6-(2,6-difluorophenyl)-4H-[1,2,4]triazolo[4,3-a][1,4]benzodiazepine]", "Ki": 5.8},
      {"molecule": "Fc1cccc(F)c1C1=NCc2nnc(-c3cccnn3)n2-c2ccc(Br)c(Cl)c21", "note": "[Example 104, 8-bromo-7-chloro-6-(2,6-difluorophenyl)-1-pyridazin-3-yl-4H-[1,2,4]triazolo[4,3-a][1,4]benzodiazepine]", "Ki": 0.6},
      {"molecule": "O=c1[nH]nc2n1-c1ccc(Cl)c(Cl)c1C(c1ncccc1F)=NC2", "note": "[Example 59, 7,8-dichloro-6-(3-fluoro-2-pyridyl)-2,4-dihydro-[1,2,4]triazolo[4,3-a][1,4]benzodiazepin-1-one]", "Ki": 5.9},
      {"molecule": "Cn1cc(-c2nnc3n2-c2ccc(Cl)c(Cl)c2C(c2ncccc2F)=NC3)cn1", "note": "[Example 58, 7,8-dichloro-6-(3-fluoro-2-pyridyl)-1-(1-methylpyrazol-4-yl)-4H-[1,2,4]triazolo[4,3-a][1,4]benzodiazepine]", "Ki": 3.6},
      {"molecule": "O=c1[nH]nc2n1-c1ccc(Cl)c(Cl)c1C(c1c(F)cccc1F)=NC2", "note": "[Example 9, 7,8-dichloro-6-(2,6-difluorophenyl)-2,4-dihydro-[1,2,4]triazolo[4,3-a][1,4]benzodiazepin-1-one]", "Ki": 0.7},
      {"molecule": "Fc1cccnc1C1=NCc2nnc(-c3cccnn3)n2-c2ccc(Br)c(Cl)c21", "note": "[Example 45, 8-bromo-7-chloro-6-(3-fluoro-2-pyridyl)-1-pyridazin-3-yl-4H-[1,2,4]triazolo[4,3-a][1,4]benzodiazepine]", "Ki": 3},
      {"molecule": "Cc1ccc2c(c1Cl)C(c1c(F)cccc1F)=NCc1nnc(-c3cccnn3)n1-2", "note": "[Example 48, 7-chloro-6-(2,6-difluorophenyl)-8-methyl-1-pyridazin-3-yl-4H-[1,2,4]triazolo[4,3-a][1,4]benzodiazepine]", "Ki": 1.1},
      {"molecule": "Cc1ccc2c(c1Cl)C(c1c(F)cccc1F)=NCc1nncn1-2", "note": "[Example 17, 7-chloro-6-(2,6-difluorophenyl)-8-methyl-4H-[1,2,4]triazolo[4,3-a][1,4]benzodiazepine]", "Ki": 1.3},
      {"molecule": "Fc1cccc(F)c1C1=NCc2nnc(C3CCOCC3)n2-c2ccc(Cl)c(Cl)c21", "note": "[Example 11, 7,8-dichloro-6-(2,6-difluorophenyl)-1-tetrahydropyran-4-yl-4H-[1,2,4]triazolo[4,3-a][1,4]benzodiazepine]", "Ki": 8.3},
      {"molecule": "COc1ccc2c(c1Cl)C(c1c(F)cccc1F)=NCc1nnc(-c3ccncn3)n1-2", "note": "[Example 61, 7-chloro-6-(2,6-difluorophenyl)-8-methoxy-1-pyrimidin-4-yl-4H-[1,2,4]triazolo[4,3-a][1,4]benzodiazepine]", "Ki": 4.2},
      {"molecule": "CO[C@H]1C[C@H](c2nnc3n2-c2ccc(Cl)c(Cl)c2C(c2c(F)cccc2F)=NC3)C1", "note": "[Example 91, trans-7,8-dichloro-6-(2,6-difluorophenyl)-1-(3-methoxycyclobutyl)-4H-[1,2,4]triazolo[4,3-a][1,4]benzodiazepine]", "Ki": 3.1},
      {"molecule": "Fc1ccccc1C1=NCc2nnc(-c3cccnn3)n2-c2ccc(C(F)(F)F)c(Cl)c21", "note": "[Example 27, 7-chloro-6-(2-fluorophenyl)-1-pyridazin-3-yl-8-(trifluoromethyl)-4H-[1,2,4]triazolo[4,3-a][1,4]benzodiazepine]", "Ki": 6.3},
      {"molecule": "Cn1cc(-c2nnc3n2-c2ccc(C(F)(F)F)c(Cl)c2C(c2ncccc2F)=NC3)cn1", "note": "[Example 70, 7-chloro-6-(3-fluoro-2-pyridyl)-1-(1-methylpyrazol-4-yl)-8-(trifluoromethyl)-4H-[1,2,4]triazolo[4,3-a][1,4]benzodiazepine]", "Ki": 6.8},
      {"molecule": "Fc1ccccc1C1=NCc2nnc(-c3cccnn3)n2-c2ccc(Cl)c(Cl)c21", "note": "[Example 10, 7,8-dichloro-6-(2-fluorophenyl)-1-pyridazin-3-yl-4H-[1,2,4]triazolo[4,3-a][1,4]benzodiazepine]", "Ki": 1.4},
      {"molecule": "Fc1cccc(F)c1C1=NCc2nncn2-c2ccc(I)c(Cl)c21", "note": "[Example 34, 7-chloro-6-(2,6-difluorophenyl)-8-iodo-4H-[1,2,4]triazolo[4,3-a][1,4]benzodiazepine]", "Ki": 0.3},
      {"molecule": "Fc1ccccc1C1=NCc2nnc(C3CC3)n2-c2ccc(Br)c(Cl)c21", "note": "[Example 2, 8-bromo-7-chloro-1-cyclopropyl-6-(2-fluorophenyl)-4H-[1,2,4]triazolo[4,3-a][1,4]benzodiazepine]", "Ki": 5.7},
      {"molecule": "Fc1cccnc1C1=NCc2nncn2-c2ccc(Br)c(Cl)c21", "note": "[Example 29, 8-bromo-7-chloro-6-(3-fluoro-2-pyridyl)-4H-[1,2,4]triazolo[4,3-a][1,4]benzodiazepine]", "Ki": 7.2},
      {"molecule": "Fc1cccnc1C1=NCc2nnc(C3CC3)n2-c2ccc(Br)c(Cl)c21", "note": "[Example 77, 8-bromo-7-chloro-1-cyclopropyl-6-(3-fluoro-2-pyridyl)-4H-[1,2,4]triazolo[4,3-a][1,4]benzodiazepine]", "Ki": 2.8},
      {"molecule": "OCc1nnc2n1-c1ccc(Br)c(Cl)c1C(c1c(F)cccc1F)=NC2", "note": "[Example 33, [8-bromo-7-chloro-6-(2,6-difluorophenyl)-4H-[1,2,4]triazolo[4,3-a][1,4]benzodiazepin-1-yl]methanol]", "Ki": 1.5},
      {"molecule": "Cc1nnc2n1-c1ccc(Br)c(Cl)c1C(c1c(F)cccc1Cl)=NC2", "note": "[Example 50, 8-bromo-7-chloro-6-(2-chloro-6-fluoro-phenyl)-1-methyl-4H-[1,2,4]triazolo[4,3-a][1,4]benzodiazepine]", "Ki": 1}
    ]}
  ]
}
